According to PubChem BioAssay AID330 (DTP/NCI, 2004):
“And” between values parts separate entries of the source, which are not always exact repeats. Equal values may be shown once. Inconclusive results and toxic doses are left out.

System: P388 leukemia ip, CD2F1 mice, survival T/C
Experiment: NCI In Vivo Anticancer Drug Screen. Data for tumor model P388 Leukemia (intraperitoneal) in CD2F1 (CDF1) mice
Details: endpoint: median survival time, higher = longer survival
In short: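 Mice carrying the transplanted tumor received test compound or vehicle. Survival was recorded in each group, and the value is the treated-group measurement divided by that of the vehicle-treated control group.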

[1] = dose: 50.0 mg/kg/injection, schedule: Q01DX009 (ip), vehicle: saline with Tween-80
[2] = dose: 100.0 mg/kg/injection, schedule: Q01DX009 (ip), vehicle: saline with Tween-80
[3] = dose: 200.0 mg/kg/injection, schedule: Q01DX009 (ip), vehicle: saline with Tween-80
[4] = dose: 12.5 mg/kg/injection, schedule: Q01DX005 (ip), vehicle: Klucel (hydroxypropylcellulose) (HPC)
[5] = dose: 25.0 mg/kg/injection, schedule: Q01DX005 (ip), vehicle: Klucel (hydroxypropylcellulose) (HPC)
[6] = dose: 50.0 mg/kg/injection, schedule: Q01DX005 (ip), vehicle: Klucel (hydroxypropylcellulose) (HPC)
[7] = dose: 200.0 mg/kg/injection, schedule: Q01DX001 (ip), vehicle: Klucel (hydroxypropylcellulose) (HPC)
[8] = dose: 400.0 mg/kg/injection, schedule: Q01DX001 (ip), vehicle: Klucel (hydroxypropylcellulose) (HPC)
[9] = dose: 60.0 mg/kg/injection, schedule: Q01DX005 (ip), vehicle: saline with Tween-80

**Q.** With `CCCCCCCCCCCC(=O)OC1CCC2(C)C(=CCC3C2CCC2(C)C(C(C)CCC(CC)C(C)C)CCC32)C1` (configuration not stated) as the compound, how does the T/C [1] read?
**A.** The T/C was 104 % of control.

**Q.** What about the T/C [2] of the same compound?
**A.** The T/C was 95 % of control.

**Q.** And the T/C [3]?
**A.** The T/C was 90 % of control.

**Q.** How did the T/C [4] turn out when `OCCN(CCO)CC(O)c1cc(-c2ccccc2)nc2ccccc12` (configuration not stated) was run?
**A.** Its T/C is 103 % of control.

**Q.** What about the T/C [5] of the same compound?
**A.** Its T/C is 94 % of control.

**Q.** And the T/C [6]?
**A.** The T/C was 102 % of control and 103 % of control.

**Q.** And the T/C (dose: 100.0 mg/kg/injection, schedule: Q01DX005 (ip), vehicle: Klucel (hydroxypropylcellulose) (HPC))?
**A.** Its T/C is 110 % of control.

**Q.** `CN(NC(=O)C(=O)NCc1ccco1)C(=O)Nc1ccc(Cl)cc1` was tested. Which T/C [1] did it give?
**A.** Its T/C is 103 % of control.

**Q.** And the T/C [2]?
**A.** The T/C was 100 % of control.

**Q.** What about the T/C [3] of the same compound?
**A.** Its T/C is 92 % of control.

**Q.** How did the T/C (dose: 50.0 mg/kg/injection, schedule: Q01DX005 (ip), vehicle: saline with Tween-80) turn out when `CCC1=CC2CN3CCc4c([nH]c5ccccc45)C(C(=O)OC)(C2)C13` (configuration not stated) was run?
**A.** Its T/C is 105 % of control.

**Q.** What about the T/C (dose: 100.0 mg/kg/injection, schedule: Q01DX005 (ip), vehicle: saline with Tween-80) of the same compound?
**A.** The T/C was 108 % of control.

**Q.** What does the source list for `O=C(NC(Cc1c[nH]c2ccccc12)C(=O)O)c1ccccc1[N+](=O)[O-]` (configuration not stated)?
**A.** T/C (dose: 6.25 mg/kg/injection, schedule: Q01DX005 (ip), vehicle: Klucel (hydroxypropylcellulose) (HPC)): 93 % of control; T/C [4]: 108 % of control; T/C [5]: 97 % of control

**Q.** With `Cc1[nH]ccc2c(C)c3nc4ccc(O)cc4c3cc12` as the compound, how does the T/C (dose: 40.0 mg/kg/injection, schedule: Q04DX002 (ip), vehicle: water) read?
**A.** Its T/C is 157 % of control.

**Q.** With `C=C(C)c1nc(Oc2ccccc2)nc(Oc2ccccc2)n1` as the compound, how does the T/C [7] read?
**A.** Its T/C is 88 % of control.

**Q.** And the T/C [8]?
**A.** The T/C was 89 % of control.

**Q.** What does the source list for `Cc1cc2ccccc2c2c(C)c3cccc[n+]3cc12`?
**A.** T/C (dose: 6.25 mg/kg/injection, schedule: Q04DX003 (ip), vehicle: other): 114 % of control; T/C (dose: 12.5 mg/kg/injection, schedule: Q04DX003 (ip), vehicle: other): 110 % of control; T/C (dose: 25.0 mg/kg/injection, schedule: Q04DX003 (ip), vehicle: other): 110 % of control

**Q.** Which T/C (dose: 50.0 mg/kg/injection, schedule: Q01DX009 (ip), vehicle: saline) does the source give for `CC(N)=NC(C)C` here?
**A.** The T/C was 101 % of control.

**Q.** What about the T/C (dose: 100.0 mg/kg/injection, schedule: Q01DX009 (ip), vehicle: saline) of the same compound?
**A.** Its T/C is 101 % of control.

**Q.** What about the T/C (dose: 200.0 mg/kg/injection, schedule: Q01DX009 (ip), vehicle: saline) of the same compound?
**A.** The T/C was 99 % of control.

**Q.** What does the source list for `C=C[C@]1(C)C=C2C(O)CC3C(C)(C)CCC[C@]3(CO)C2CC1` (some centres not stated)?
**A.** T/C [9]: 100 % of control; T/C (dose: 120.0 mg/kg/injection, schedule: Q01DX005 (ip), vehicle: saline with Tween-80): 97 % of control; T/C (dose: 240.0 mg/kg/injection, schedule: Q01DX005 (ip), vehicle: saline with Tween-80): 96 % of control

**Q.** Which results are given for `COc1cc(O)c2c(c1)C(=O)C1=C(C2=O)[C@@H](C)OC(C)C1` (some centres not stated)?
**A.** T/C (dose: 15.0 mg/kg/injection, schedule: Q01DX005 (ip), vehicle: saline with Tween-80): 94 % of control; T/C (dose: 30.0 mg/kg/injection, schedule: Q01DX005 (ip), vehicle: saline with Tween-80): 96 % of control; T/C [9]: 88 % of control and 94 % of control

**Q.** Which T/C (dose: 50.0 mg/kg/injection, schedule: Q01DX009 (ip), vehicle: distilled water + alcohol) does the source give for `O=C(c1ccccc1)C(O)n1ccnc1` (configuration not stated) here?
**A.** The T/C was 102 % of control.

**Q.** What about the T/C (dose: 100.0 mg/kg/injection, schedule: Q01DX009 (ip), vehicle: distilled water + alcohol) of the same compound?
**A.** Its T/C is 104 % of control.

**Q.** What about the T/C (dose: 200.0 mg/kg/injection, schedule: Q01DX009 (ip), vehicle: distilled water + alcohol) of the same compound?
**A.** The T/C was 107 % of control.

**Q.** `CC(=O)c1coc2c(c(C)nn2-c2ccccc2)c1=O` was tested. Which T/C (dose: 7.5 mg/kg/injection, schedule: Q01DX005 (ip), vehicle: Klucel (hydroxypropylcellulose) (HPC)) did it give?
**A.** Its T/C is 99 % of control.

**Q.** What about the T/C (dose: 15.0 mg/kg/injection, schedule: Q01DX005 (ip), vehicle: Klucel (hydroxypropylcellulose) (HPC)) of the same compound?
**A.** Its T/C is 100 % of control.

**Q.** What about the T/C (dose: 30.0 mg/kg/injection, schedule: Q01DX005 (ip), vehicle: Klucel (hydroxypropylcellulose) (HPC)) of the same compound?
**A.** The T/C was 100 % of control.

**Q.** What does the source list for `CS(=O)(=O)C(=C1C(=O)NC(=O)NC1=O)S(C)(=O)=O`?
**A.** T/C [4]: 98 % of control; T/C [5]: 100 % of control; T/C [6]: 107 % of control and 109 % of control

**Q.** Which T/C (dose: 100.0 mg/kg/injection, schedule: Q01DX001 (ip), vehicle: Klucel (hydroxypropylcellulose) (HPC)) does the source give for `N#CC(CCCC(C#N)(c1ccccc1)c1ccccc1)(c1ccccc1)c1ccccc1` here?
**A.** The T/C was 100 % of control.

**Q.** What about the T/C [7] of the same compound?
**A.** The T/C was 101 % of control.

**Q.** What about the T/C [8] of the same compound?
**A.** The T/C was 105 % of control.
